How the values were obtained:
Design in all cases: scale not given: the % may be the effect or the level left
[1] = biological target: Serine/threonine-protein kinase N1 (Homo sapiens) (UniProt Q16512); experiment: Inhibition of human PKN1 assessed as enzyme activity at 1 uM using KKLNRTLSVA as substrate preincubated for 20 mins followed by [gamma-33P]-ATP addition and measured after 120 mins by radiometric Hot-SpotSM Kinase assay relative to control
[2] = biological target: Tyrosine-protein kinase Lck (Homo sapiens) (UniProt P06239); experiment: Inhibition of human LCK assessed as enzyme activity at 1 uM using poly[Glu:Tyr] (4:1) as substrate preincubated for 20 mins followed by [gamma-33P]-ATP addition and measured after 120 mins by radiometric Hot-SpotSM Kinase assay relative to control
Chain of Tyrosine-protein kinase Lck (Homo sapiens) (P06239 2-509 limits assumed): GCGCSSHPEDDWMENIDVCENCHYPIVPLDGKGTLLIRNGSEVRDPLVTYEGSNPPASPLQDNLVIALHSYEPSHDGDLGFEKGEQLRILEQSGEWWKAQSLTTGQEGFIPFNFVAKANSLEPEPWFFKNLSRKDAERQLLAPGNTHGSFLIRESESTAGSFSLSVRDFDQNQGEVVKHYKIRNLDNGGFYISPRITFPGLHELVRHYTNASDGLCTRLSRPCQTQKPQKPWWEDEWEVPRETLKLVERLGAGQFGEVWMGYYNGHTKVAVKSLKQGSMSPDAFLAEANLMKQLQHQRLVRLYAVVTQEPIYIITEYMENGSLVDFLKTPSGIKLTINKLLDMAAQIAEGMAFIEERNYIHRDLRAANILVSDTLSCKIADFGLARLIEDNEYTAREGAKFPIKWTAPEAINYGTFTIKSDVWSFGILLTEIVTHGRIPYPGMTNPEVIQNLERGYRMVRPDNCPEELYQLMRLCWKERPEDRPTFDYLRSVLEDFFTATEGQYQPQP

[3] = biological target: T1, Casein kinase I isoform alpha-like (Homo sapiens) (UniProt Q8N752); experiment: Inhibition of human CK1a1L assessed as enzyme activity at 1 uM using KRRRAL[pS]VASLPGL as substrate preincubated for 20 mins followed by [gamma-33P]-ATP addition and measured after 120 mins by radiometric Hot-SpotSM Kinase assay relative to control
T1 sequence (whole entry): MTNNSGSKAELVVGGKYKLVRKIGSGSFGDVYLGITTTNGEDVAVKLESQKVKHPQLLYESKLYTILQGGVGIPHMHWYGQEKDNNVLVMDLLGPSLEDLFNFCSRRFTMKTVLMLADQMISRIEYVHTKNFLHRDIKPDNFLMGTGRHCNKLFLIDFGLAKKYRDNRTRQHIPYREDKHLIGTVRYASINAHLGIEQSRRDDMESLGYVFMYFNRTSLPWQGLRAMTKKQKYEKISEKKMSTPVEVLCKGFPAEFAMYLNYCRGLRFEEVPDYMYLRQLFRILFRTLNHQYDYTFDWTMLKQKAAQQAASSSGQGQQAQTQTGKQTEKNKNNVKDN

[4] = biological target: Casein kinase II subunit alpha (Homo sapiens) (UniProt P68400); experiment: Inhibition of human CK2a assessed as enzyme activity at 1 uM using RRRDDDSDDD as substrate preincubated for 20 mins followed by [gamma-33P]-ATP addition and measured after 120 mins by radiometric Hot-SpotSM Kinase assay relative to control
Chain of Casein kinase II subunit alpha (Homo sapiens) (P68400 whole entry, looked up): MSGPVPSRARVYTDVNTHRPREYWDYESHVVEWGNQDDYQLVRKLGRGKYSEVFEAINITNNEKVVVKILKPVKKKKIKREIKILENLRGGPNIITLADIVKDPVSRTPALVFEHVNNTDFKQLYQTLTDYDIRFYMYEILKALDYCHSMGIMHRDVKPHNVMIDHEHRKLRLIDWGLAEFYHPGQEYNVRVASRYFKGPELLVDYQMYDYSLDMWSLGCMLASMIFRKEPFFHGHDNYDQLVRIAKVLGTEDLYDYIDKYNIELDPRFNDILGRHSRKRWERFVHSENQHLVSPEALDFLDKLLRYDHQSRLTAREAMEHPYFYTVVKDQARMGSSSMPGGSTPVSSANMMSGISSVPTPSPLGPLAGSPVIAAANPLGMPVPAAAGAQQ

[5] = biological target: T2, Mitogen-activated protein kinase kinase kinase 6 (Homo sapiens) (UniProt O95382); experiment: Inhibition of human MEKK6 assessed as enzyme activity at 1 uM using myelin basic protein as substrate preincubated for 20 mins followed by [gamma-33P]-ATP addition and measured after 120 mins by radiometric Hot-SpotSM Kinase assay relative to control
T2 sequence (whole entry): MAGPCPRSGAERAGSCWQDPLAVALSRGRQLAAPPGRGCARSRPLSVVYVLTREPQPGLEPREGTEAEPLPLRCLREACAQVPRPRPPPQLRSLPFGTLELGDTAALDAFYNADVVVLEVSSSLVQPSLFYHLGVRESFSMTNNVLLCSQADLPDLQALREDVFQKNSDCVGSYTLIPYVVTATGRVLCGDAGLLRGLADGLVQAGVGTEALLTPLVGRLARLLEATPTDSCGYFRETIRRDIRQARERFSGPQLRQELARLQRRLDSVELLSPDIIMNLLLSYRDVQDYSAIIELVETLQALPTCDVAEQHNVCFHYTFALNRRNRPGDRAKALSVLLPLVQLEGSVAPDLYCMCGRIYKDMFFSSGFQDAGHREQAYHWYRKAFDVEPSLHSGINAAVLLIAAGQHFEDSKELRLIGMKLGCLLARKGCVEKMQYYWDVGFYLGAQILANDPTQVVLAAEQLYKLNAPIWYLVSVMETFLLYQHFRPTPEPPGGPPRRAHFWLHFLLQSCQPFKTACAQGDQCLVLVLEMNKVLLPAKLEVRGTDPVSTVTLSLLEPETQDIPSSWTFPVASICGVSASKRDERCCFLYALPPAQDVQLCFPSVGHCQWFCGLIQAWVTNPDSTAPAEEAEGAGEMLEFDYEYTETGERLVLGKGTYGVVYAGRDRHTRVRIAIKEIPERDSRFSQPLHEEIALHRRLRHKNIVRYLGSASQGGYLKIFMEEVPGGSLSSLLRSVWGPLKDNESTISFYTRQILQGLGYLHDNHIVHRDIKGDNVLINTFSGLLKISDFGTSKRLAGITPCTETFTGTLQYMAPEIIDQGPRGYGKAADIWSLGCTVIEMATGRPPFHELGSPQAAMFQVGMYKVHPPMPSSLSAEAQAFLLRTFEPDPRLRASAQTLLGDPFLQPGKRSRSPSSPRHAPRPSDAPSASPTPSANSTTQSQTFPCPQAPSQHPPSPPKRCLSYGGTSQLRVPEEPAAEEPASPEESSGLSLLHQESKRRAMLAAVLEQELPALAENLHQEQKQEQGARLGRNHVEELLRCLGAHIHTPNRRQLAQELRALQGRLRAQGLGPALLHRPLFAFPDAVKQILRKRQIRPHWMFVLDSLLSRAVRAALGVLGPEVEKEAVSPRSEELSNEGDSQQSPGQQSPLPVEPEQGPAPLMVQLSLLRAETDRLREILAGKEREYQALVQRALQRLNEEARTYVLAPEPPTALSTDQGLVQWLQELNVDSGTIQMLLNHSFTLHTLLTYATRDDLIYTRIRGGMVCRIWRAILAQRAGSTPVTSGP

[6] = biological target: Mitogen-activated protein kinase kinase kinase kinase 4 (Homo sapiens) (UniProt O95819); experiment: Inhibition of human HGK assessed as enzyme activity at 1 uM using myelin basic protein as substrate preincubated for 20 mins followed by [gamma-33P]-ATP addition and measured after 120 mins by radiometric Hot-SpotSM Kinase assay relative to control
Chain of Mitogen-activated protein kinase kinase kinase kinase 4 (Homo sapiens) (O95819 2-1239 limits assumed): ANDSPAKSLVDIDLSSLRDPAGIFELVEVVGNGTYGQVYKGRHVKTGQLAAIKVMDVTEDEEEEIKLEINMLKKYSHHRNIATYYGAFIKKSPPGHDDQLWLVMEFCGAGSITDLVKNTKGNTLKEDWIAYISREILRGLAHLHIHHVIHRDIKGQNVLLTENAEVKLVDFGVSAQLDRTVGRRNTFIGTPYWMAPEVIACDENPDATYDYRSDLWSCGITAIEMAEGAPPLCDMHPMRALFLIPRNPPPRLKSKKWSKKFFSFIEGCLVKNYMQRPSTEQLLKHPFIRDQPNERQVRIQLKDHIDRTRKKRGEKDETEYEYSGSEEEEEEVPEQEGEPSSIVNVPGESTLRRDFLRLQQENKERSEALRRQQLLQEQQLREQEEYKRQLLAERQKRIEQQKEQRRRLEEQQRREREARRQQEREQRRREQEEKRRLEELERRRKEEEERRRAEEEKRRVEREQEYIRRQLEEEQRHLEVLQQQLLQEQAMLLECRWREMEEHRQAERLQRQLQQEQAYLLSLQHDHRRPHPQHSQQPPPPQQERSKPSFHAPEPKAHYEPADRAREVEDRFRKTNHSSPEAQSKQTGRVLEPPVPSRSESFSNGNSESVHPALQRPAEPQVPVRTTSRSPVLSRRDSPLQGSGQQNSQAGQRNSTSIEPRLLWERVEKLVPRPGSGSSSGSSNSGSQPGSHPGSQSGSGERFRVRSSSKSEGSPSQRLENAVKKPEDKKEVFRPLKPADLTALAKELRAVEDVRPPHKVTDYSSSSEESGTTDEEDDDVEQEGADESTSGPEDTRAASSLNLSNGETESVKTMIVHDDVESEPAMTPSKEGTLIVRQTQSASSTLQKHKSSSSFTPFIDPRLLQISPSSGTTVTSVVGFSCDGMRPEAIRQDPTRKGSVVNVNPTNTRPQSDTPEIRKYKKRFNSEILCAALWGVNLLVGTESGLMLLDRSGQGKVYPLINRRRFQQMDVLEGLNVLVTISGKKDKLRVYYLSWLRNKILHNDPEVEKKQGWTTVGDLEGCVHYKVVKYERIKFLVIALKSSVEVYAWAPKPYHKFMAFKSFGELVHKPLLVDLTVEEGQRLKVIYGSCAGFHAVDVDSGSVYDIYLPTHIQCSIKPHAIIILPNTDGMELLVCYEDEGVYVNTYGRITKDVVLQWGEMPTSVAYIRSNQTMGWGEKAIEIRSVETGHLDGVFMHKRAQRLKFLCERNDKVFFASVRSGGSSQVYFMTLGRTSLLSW

[7] = biological target: Dual specificity protein kinase CLK1 (Homo sapiens) (UniProt P49759); experiment: Inhibition of human CLK1 assessed as enzyme activity at 1 uM using myelin basic protein as substrate preincubated for 20 mins followed by [gamma-33P]-ATP addition and measured after 120 mins by radiometric Hot-SpotSM Kinase assay relative to control
Chain of Dual specificity protein kinase CLK1 (Homo sapiens) (P49759 whole entry, looked up): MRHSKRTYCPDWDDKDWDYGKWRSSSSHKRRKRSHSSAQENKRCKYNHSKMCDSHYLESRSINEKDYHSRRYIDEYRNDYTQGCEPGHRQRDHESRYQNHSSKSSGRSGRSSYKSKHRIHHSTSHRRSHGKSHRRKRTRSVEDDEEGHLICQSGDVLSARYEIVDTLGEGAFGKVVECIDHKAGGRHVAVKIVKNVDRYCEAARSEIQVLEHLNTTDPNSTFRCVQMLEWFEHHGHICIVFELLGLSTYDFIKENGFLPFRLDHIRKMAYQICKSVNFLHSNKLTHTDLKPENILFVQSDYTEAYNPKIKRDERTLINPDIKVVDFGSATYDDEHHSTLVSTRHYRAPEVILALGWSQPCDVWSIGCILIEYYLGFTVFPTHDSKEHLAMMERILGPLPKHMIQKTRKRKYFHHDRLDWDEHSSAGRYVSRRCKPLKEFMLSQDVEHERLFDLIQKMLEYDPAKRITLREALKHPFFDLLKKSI

[8] = biological target: Serine/threonine-protein kinase pim-3 (Homo sapiens) (UniProt Q86V86); experiment: Inhibition of human PIM3 assessed as enzyme activity at 1 uM using RSRHSSYPAGT as substrate preincubated for 20 mins followed by [gamma-33P]-ATP addition and measured after 120 mins by radiometric Hot-SpotSM Kinase assay relative to control

Chain of Serine/threonine-protein kinase N1 (Homo sapiens) (Q16512 2-942 limits assumed): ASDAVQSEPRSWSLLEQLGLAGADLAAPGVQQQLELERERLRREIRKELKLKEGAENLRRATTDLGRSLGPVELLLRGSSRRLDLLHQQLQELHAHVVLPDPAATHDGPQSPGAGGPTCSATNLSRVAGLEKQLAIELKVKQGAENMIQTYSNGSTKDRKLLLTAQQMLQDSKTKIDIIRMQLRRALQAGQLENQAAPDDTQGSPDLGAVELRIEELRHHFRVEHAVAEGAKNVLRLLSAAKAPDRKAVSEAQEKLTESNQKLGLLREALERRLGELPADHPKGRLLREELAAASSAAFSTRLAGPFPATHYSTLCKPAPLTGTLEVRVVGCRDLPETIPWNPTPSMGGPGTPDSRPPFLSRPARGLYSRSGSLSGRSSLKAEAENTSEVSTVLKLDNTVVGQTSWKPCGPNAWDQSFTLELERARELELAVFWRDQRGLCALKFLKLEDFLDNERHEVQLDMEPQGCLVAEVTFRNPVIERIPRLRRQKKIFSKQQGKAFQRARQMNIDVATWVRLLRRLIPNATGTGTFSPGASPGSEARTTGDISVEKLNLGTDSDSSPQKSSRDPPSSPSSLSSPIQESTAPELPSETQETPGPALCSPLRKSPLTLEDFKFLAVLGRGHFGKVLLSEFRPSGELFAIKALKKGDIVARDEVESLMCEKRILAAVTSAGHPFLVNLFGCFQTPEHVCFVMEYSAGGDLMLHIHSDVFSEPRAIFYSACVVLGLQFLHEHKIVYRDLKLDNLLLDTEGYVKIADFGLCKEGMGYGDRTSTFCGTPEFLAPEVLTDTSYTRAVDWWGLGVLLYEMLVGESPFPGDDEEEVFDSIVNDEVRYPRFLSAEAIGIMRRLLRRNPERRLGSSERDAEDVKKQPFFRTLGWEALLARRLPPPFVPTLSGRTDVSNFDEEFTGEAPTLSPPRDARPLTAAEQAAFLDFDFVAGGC

Row | SMILES | Activity [1] [%] | Activity [2] [%] | Activity [3] [%] | Activity [4] [%] | Activity [5] [%] | Activity [6] [%] | Activity [7] [%] | Activity [8] [%]
1 | CC[C@H](Nc1ncnc2[nH]cnc12)c1nc2cccc(F)c2c(=O)n1-c1ccccc1 | 90.5 | 88.5 | 101 | 96 | 96.6 | 93 | 97.3 | 104
2 | C[C@H](Nc1ncnc2nc[nH]c12)c1cc2cccc(Cl)c2c(=O)n1-c1ccccc1 | 84 | 94.7 | 99.5 | 83.6 | 97.5 | 97.1 | 106 | 95.4
3 | CC(C)Oc1ccc(-c2nn([C@@H](C)c3oc4ccc(F)cc4c(=O)c3-c3cccc(F)c3)c3ncnc(N)c23)cc1F [UMBRALISIB] | 92.8 | 96.8 | 103 | 78.2 | 93.9 | 97.1 | 103 | 102
